Laboratory results from a melting point compilation (Tetko et al.; mined from patent text by program, amines drawn as free bases though some values may be those of a salt).

In the case of `CCCCCc1c(C(C)C)nc(C(C)C)c(CO)c1-c1ccc(C)cc1`, the melting point is reported as 92 to 94 °C.
Molecule `Clc1ccc(N2CCN(Cc3n[nH]c4c(Cl)cccc34)CC2)cc1` has a melting point of 152 to 154 °C.
`CN(C)C(=O)NCCNCC(O)COc1ccc(OCCOCC2CC2)cc1` (stereo not drawn) showed a melting point of 86 °C.
For `COC(=O)c1nc(NC(C)=O)sc1-c1ccc(SC)cc1`, the melting point was 253 to 254 °C.
In the case of `NC(=O)C1=NN(c2cccc(COCC(F)(F)C(F)(F)F)c2)C(c2ccccc2F)N1` (stereo not drawn), the melting point is reported as 151 to 153 °C.
In the case of `Cc1nc2cnccc2n1-c1ccc(C=Cc2cccc(OCc3nc4cc(F)ccc4s3)c2)cc1`, the melting point is reported as 178 to 181 °C.
In the case of `CSc1nnc(-c2ccc3ccccc3c2)n1C`, the melting point is reported as 177 to 179 °C.
For `CC(C)(C)c1ccc(CSc2nc3cnccc3[nH]2)cc1`, the melting point was 207 to 208 °C.
In the case of `CCn1nnc(Cc2ccc(NC(=O)/C=C/c3cnn(C)c3-c3ccc(F)cc3)cc2)n1`, the melting point is reported as 187 to 188 °C.
Work on `O=C(O)CCc1oc(Oc2ccccc2)nc1-c1ccc(Cl)cc1` yielded a melting point of 136 to 137 °C.
`O=C(CC(=O)N1CCOCC1)c1ccc2ccccc2c1O` gave a melting point of 128 to 130 °C.
`CC(=O)OC[C@@H]1CCCN1C(c1ccccc1)(c1ccccc1)c1ccccc1Cl` showed a melting point of 102 to 104 °C.
For `Cc1ccc2c(c1)[C@H]1Cc3ccccc3[C@H]1N2` (relative stereo), the melting point was 110 °C.
In the case of `O=C(c1ccccc1)c1ccc(Cl)nc1`, the melting point is reported as 39 to 40 °C.
For `COc1ccc2nccc(CCC[C@@H]3CCN(CCCc4ccccc4F)C[C@@H]3C(=O)O)c2c1`, the melting point was 194 °C.
For `CN1CCN(CCCn2c(NC(=O)c3ccc(Cl)c(Cl)c3)nc3ccccc32)CC1`, the melting point was 166 to 168 °C.
`Cc1nc(NC(=O)NC(=O)c2c(Cl)cccc2Cl)cnc1-c1ccc(Br)cc1` showed a melting point of 225 to 227 °C.
With `COc1ccccc1C1CCC(=O)CC1(O)C(=O)O` (stereo not drawn) the melting point was 204 °C.
Work on `COc1ccc(Oc2cc(N)c(F)cc2C#N)cc1` yielded a melting point of 135 °C.
With `CN(Cc1ccc(NC(=O)C2=Cc3cc(-c4ccc(Cl)s4)ccc3S(=O)(=O)CC2)cc1)C1CCOCC1` the melting point was 221 to 222 °C.
In the case of `CCOC(=O)NC1=NCC(c2ccc(OCC)cc2)N1C` (stereo not drawn), the melting point is reported as 115 to 116 °C.
With `CC(C)(C)NCC(O)c1ccc(OCc2ccccc2)cn1` (stereo not drawn) the melting point was 69 to 73 °C.
For `C[C@](Cc1c[nH]c2ccccc12)(NC(=O)O)C(=O)NCCC1CCCCC1`, the melting point was 79 to 81 °C.
Work on `CC(=O)Oc1ccc2c(=O)c(C=O)coc2c1` yielded a melting point of 157 to 159 °C.
Molecule `NC(=O)N1CCC(c2nn(-c3ccc(C(F)(F)F)cc3)c3ccc(F)cc23)CC1` has a melting point of 172 to 174 °C.
`Cc1cc(C)c(S(=O)(=O)Oc2nc(Nc3ccc(F)cc3F)c(C(=O)n3ccnc3)cc2F)c(C)c1` gave a melting point of 98 to 101 °C.
In the case of `CC1COc2c(N3CCC(n4cncn4)C3)c(F)cc3c(=O)c(C(=O)O)cn1c23` (single isomer, unassigned; (-)), the melting point is reported as 229 to 231 °C.
`O=C(NCc1ccn(-c2cc3[nH]c(=O)c(=O)[nH]c3cc2[N+](=O)[O-])c1)NC1CCN(Cc2ccccc2)CC1` gave a melting point of 234 to 237 °C.
In the case of `CCCCCCSc1nn2c(=O)c(Cl)c(F)nc2s1`, the melting point is reported as 105 to 111 °C.
In the case of `CC(=O)OCC(C(OC(C)=O)c1ccc([N+](=O)[O-])cc1)[N+](=O)[O-]` (stereo not drawn), the melting point is reported as 63 to 66 °C.
Molecule `N#Cc1ccc(-c2cccc(C=O)c2)cc1` has a melting point of 122 to 123 °C.
`Cc1ccc(-c2[nH]c(C3CCCCC3)nc2C(=O)Nc2nccs2)cc1` gave a melting point of 199 to 200 °C.
With `CCCCC(C)C(C=Cc1ccc(OCc2ccccc2)c(OCc2ccccc2)c1)OC` (stereo not drawn) the melting point was 36 to 38 °C.
Work on `CCCc1nc(Nc2cccc(C(C)C)c2)nc(NC2CCN(S(C)(=O)=O)CC2)n1` yielded a melting point of 80.4 to 81.8 °C.
Work on `COc1ccc(C2CSc3ccccc3N(CC(=O)O)C2=O)cc1` (stereo not drawn) yielded a melting point of 180 °C.
With `CN(C)C(=O)C1(N2C(=O)c3cccc(Cl)c3C2=O)CCCCC1` the melting point was 135 to 137 °C.
`O=C(OCC(Cl)(Cl)Cl)c1ncn2c1CN=C(c1ccccc1)c1cc(Br)ccc1-2` gave a melting point of 113 to 116 °C.
Molecule `COc1ccc2cc3c(Br)nn(C(C)C)c3nc2c1` has a melting point of 130 to 131 °C.
Work on `Cn1cc(C2=C(c3c4n(c5ccccc35)CCCC4)C(=O)NC2=O)c2ccccc21` yielded a melting point of 286 to 289 °C.
`CNc1cc(Oc2cccc(C(F)(F)F)c2)nc(C(=O)Nc2ccccc2)c1` gave a melting point of 158 to 160 °C.
In the case of `CC1(N2C(=O)c3cccc(NCc4cccc(Cl)c4)c3C2=O)CCC(=O)NC1=O` (stereo not drawn), the melting point is reported as 199 to 201 °C.
`O=C(Nc1ccc(-c2cnc(-c3ccc(NC(=O)c4c(F)c(F)c(F)c(F)c4F)cc3)[nH]2)cc1)c1cccnc1` showed a melting point of 265 to 266 °C.
`O=S(=O)(c1ccc(Cl)cc1)C1(c2cccnc2Cl)CCCCCC1` showed a melting point of 168 to 169 °C.
Molecule `Cc1ccc(C=CC(=O)NNC(=O)CCc2cc(C(C)(C)C)c(O)c(C(C)(C)C)c2)cc1` has a melting point of 274 to 275 °C.
In the case of `O=C(NCCO)/C(=C/c1ccc(C2CC2)cc1)NC(=O)c1ccc(OCCc2ccc3c(c2)OCO3)cc1`, the melting point is reported as 113 to 115 °C.
`NS(=O)(=O)c1ccc(NC(=O)Nc2ccc3c(c2)Cc2ccccc2-3)cc1` showed a melting point of 280 to 285 °C.
With `CC1Oc2ccc(C(=O)CCC(=O)O)cc2NC1=O` (stereo not drawn) the melting point was 198 to 200 °C.
For `OC(CN1CCC(c2noc3cc(F)ccc23)CC1)CN1CCc2ccccc2C1` (stereo not drawn), the melting point was 179 to 181 °C.
`CN1CCN(C(=O)COc2cc(-c3ccccc3)nc3ccccc23)CC1=O` gave a melting point of 140 °C.
In the case of `COC(=O)CCCCc1ccc(C(=O)Cc2ccccc2)cc1`, the melting point is reported as 53.5 to 54 °C.
Molecule `CN1C(=O)C(NC(=O)NCc2ccccc2)N=C(c2ccccc2)c2ccccc21` (stereo not drawn) has a melting point of 240 to 242 °C.
Molecule `Cc1ccc(C2=CCN(CCCc3nnc4n3CCCCC4)CC2)cc1` has a melting point of 93 to 96 °C.
`Nc1nc(Cl)cnc1-c1cccc(Cl)c1Cl` gave a melting point of 179 to 181 °C.
In the case of `N#Cc1c(N2CCCN(c3ccccc3)CC2)cc[nH]c1=S`, the melting point is reported as 128 to 132 °C.
`O=C1C2CCCN2c2ccccc2N1Cc1ccccc1` (stereo not drawn) gave a melting point of 156 to 157 °C.
`CS(=O)c1ccc(C2=C(c3ccc(F)cc3)C(=O)C(C)(C)O2)cc1` (stereo not drawn) showed a melting point of 134 to 136 °C.
Molecule `CC(COC(=O)NC(=O)C(c1ccccc1)c1ccccc1)c1ccccc1` (racemic) has a melting point of 131 °C.
Molecule `Cc1ccnc2c1C(=O)c1ccccc1-2` has a melting point of 130 to 131 °C.
Work on `O=C1Cc2cccc(Nc3ccccc3)c2N1` yielded a melting point of 166 to 168 °C.
Work on `O=C(O)c1nc(Cl)sc1Cl` yielded a melting point of 191 °C.
In the case of `Cc1cc2c(cc1Cl)CCN2C(=O)Nc1cccnc1`, the melting point is reported as 217 to 218 °C.
With `N#CCCSCc1csc(NC(=N)N)n1` the melting point was 127 to 128 °C.
In the case of `CC(C)NC1=NS(=O)(=O)c2cc(C(=O)O)ccc2N1`, the melting point is reported as > 310 °C.
`Cc1c(NC(=O)c2ccc(-c3cc4ccccc4s3)cc2)ccc2cc(CN3CCCC3)cnc12` showed a melting point of 217 to 218 °C.
For `O=C(CCCCC1(c2ccccc2)CC(O)=C(SCCc2ccccc2)C(=O)O1)NCc1ccccc1` (stereo not drawn), the melting point was 47 to 49 °C.
In the case of `COCCNc1ccc(C2=NNC(=O)NC2C)cc1` (stereo not drawn), the melting point is reported as 160 to 165 °C.
`CS(=O)(=O)N(c1cccc(CN2CCN(C(c3ccccc3)c3ccccc3)CC2)n1)S(C)(=O)=O` gave a melting point of 167 to 169 °C.
`CCN1CCCc2cc(C(=O)c3ccc4c(c3)CCCN4CC)ccc21` showed a melting point of 120 °C.
For `CC(C)N(CCOc1ccc(CC2SC(=O)NC2=O)cc1)C(C)C` (stereo not drawn), the melting point was 134 to 135 °C.
Work on `O=[N+]([O-])c1cc(-c2ccco2)ccc1Nc1cccc(-n2ccnc2)c1` yielded a melting point of 147 to 149 °C.
`Brc1cccc2c(-c3ccccc3)coc12` showed a melting point of 69.5 to 71.5 °C.
With `O=C(O)Cc1ccc(OCCCCc2cc(-c3ccc(C(F)(F)F)cc3)no2)cc1` the melting point was 125 to 126 °C.
`CCCN(c1cc(C)ccn1)c1cccc2c1OC[C@H]2Nc1ccc2c(c1)OC[C@H]2CC(=O)O` showed a melting point of 146 °C.
`CCc1c(-c2cc(C)c(O)c(C)c2)[nH]c2ccccc12` gave a melting point of 107 °C.
`Cc1nc(C2(C)CC2(Cl)Cl)nn1-c1c(Cl)cc(C(F)(F)F)cc1Cl` (stereo not drawn) showed a melting point of 107 to 116 °C.
For `O=c1nc2c(c3ncnn13)=NC(c1ccccc1)=N2`, the melting point was > 300 °C.
Molecule `CCCCCCCCCCCCCCCCOc1cc(O)c(NC(C)=O)cc1C12CC3CC(CC(C3)C1)C2` has a melting point of 146 to 148 °C.
`CCCCOCCOc1ccc(-c2ccc(N3CCCCCC3)c(C=CC(=O)O)c2)cc1` gave a melting point of 135 to 138 °C.
For `O=C(O)c1ccc(C(Cc2ccc(F)cc2)C(=O)Nc2nc3ccccc3o2)cc1` (stereo not drawn), the melting point was 199 to 201 °C.
In the case of `CC(Oc1ncn(-c2ccc(C(F)(F)F)cc2)n1)C(=O)NC1CC1` (stereo not drawn), the melting point is reported as 175 to 177 °C.
With `O=C(O)c1cnc2ccn(Cc3ccccc3)n2c1=O` the melting point was 198 to 199 °C.
Molecule `CCOC(=O)CC(=Nc1cc([N+](=O)[O-])ccc1Cl)OC` has a melting point of 60 to 62 °C.
For `COC(=O)c1ccc2cc(C=O)ccc2c1`, the melting point was 127 °C.
`CC1=C(C(=O)OC(C)C)C(c2cccc3ccc(-c4ccccc4)nc23)C([N+](=O)[O-])=C(C)N1` (stereo not drawn) showed a melting point of 205 °C.
For `Cc1ccc(C=CC(C#N)=NO)cc1`, the melting point was 135 to 137 °C.
`CCCc1c(OCCCCCOc2cccc3cc(C(=O)O)oc23)ccc2c1OCCC2=O` showed a melting point of 79.5 to 81 °C.
In the case of `CCCCn1c(=O)c(NC(=O)Nc2cc(Cc3cc[nH]n3)ccc2C(C)(C)C)c(-c2cccc(OCCCO)c2)c2cccnc21`, the melting point is reported as 116 to 119 °C.
Work on `CCOC(=O)C1=C(C)NC(N)=C(C(=O)OCC)C1c1ccccc1OC` (stereo not drawn) yielded a melting point of 170 °C.
`COc1ccc(CC(=O)NCCc2ccc(N)cc2)cc1` showed a melting point of 112 to 114 °C.
`CC(=O)c1ccc2c(c1)oc(=O)n2CCCN1CCC(c2noc3cc(F)ccc23)CC1` gave a melting point of 152 to 154 °C.
`CC(C)CN1C(=O)c2cnc(-c3ccccc3)nc2N(C(=O)CN2CCCCC2)c2ccccc21` gave a melting point of 193 to 194 °C.
With `Cc1cc(-c2cc(C(F)(F)F)n3ncc(-c4nc(-c5ccc(N)nc5)no4)c3n2)ccc1Cl` the melting point was 262 °C.
`CCOCc1nc2c(N)nc3cc(-c4cccnc4)ccc3c2n1CCCCS(N)(=O)=O` gave a melting point of 250 to 252 °C.
`CN1CCCCC1C(NC(=O)Nc1ccc2[nH]ncc2c1)c1cc(F)cc(Cl)c1` (stereo not drawn) showed a melting point of 192 °C.
For `C=CCCCOc1cc(OCCCCCCCC)ccc1C(=O)O`, the melting point was 67 to 68 °C.
Molecule `CCCCCCCCCCCCn1nnc(C(=O)O)n1` has a melting point of 122 to 124 °C.
In the case of `CCOC(=O)N(C)C1CCc2c([nH]c3ccccc23)C1` (stereo not drawn), the melting point is reported as 167 to 168 °C.
`CC1COc2cccc3[nH]c(=O)n1c23` (stereo not drawn) gave a melting point of 137 °C.
